Assay results published in paper PMC6271870, “Study on the Synthesis, Biological Activity and Spectroscopy of Naphthalimide-Diamine Conjugates” (Molecules, 2014).

Key:
[1] = tested on: cancer of colon HCT116; assay: MTT assay, HCT116 cells; format: cell-based; settings: Homo sapiens, HCT-116, aminoguanidine present, mean ± SD of three determinations, max 50 µM tested
Experimental: (§1) The cytotoxicities of the novel conjugates were assessed in vitro by the MTT assay in the presence of aminoguanidine (an inhibitor of amine oxidase) against three cell lines, human leukemia K562, cancer of colon HCT116 and human normal hepatocyte QSG-7701 [34]. […] Thus, compound 7f was selected for further investigation. Cell lines, K562, 7721 and HCT116 were obtained from American Type Culture Collection (ATCC, Shanghai, China). Cells were cultured in RPMI1640, supplemented with 10% heat-inactivated fetal calf serum (FCS), antibiotics (penicillin, 100 units/mL; streptomycin sulfate, 100 μg/mL) at 37 °C, in an atmosphere of 95% air and 5% CO2 under humidified conditions. Aminoguanidine (1 mM) was added as an inhibitor of amine oxidase derived from FCS and had no effect on the various parameters of the cell measured in this study. In addition, exponentially growing HCT116 or 7721 cells were seeded into 96-well plates at 5000 cells/well and allowed to attach overnight, and then 100 μL of MTT (1 mg/mL) was added. After incubation for 4 h at 37 °C, the MTT solution was removed and the remaining formazan crystals were dissolved with 150 μL DMSO in each well. The absorbance of each well was then read at 570 nm.

[2] = tested on: human normal hepatocyte QSG-7701; assay: MTT assay, QSG-7701 cells; format: cell-based; settings: QSG7701, aminoguanidine present, mean ± SD of three determinations, max 50 µM tested
Experimental: as §1

[3] = tested on: human leukemia K562; assay: MTT assay, K562 cells; format: cell-based; settings: 48 h, aminoguanidine present, mean ± SD of three determinations, max 50 µM tested
Experimental: as §1, with “Chemosensitivity” for “In addition, exponentially growing HCT116 or 7721 cells were seeded into 96-well plates at 5000 cells/well and allowed to attach overnight, and then 100 μL of MTT (1 mg/mL)”, “assessed using the 3-(4,5-dimethylthiazol-2-yl)-2,5-diphenyltetrazolium bromide (MTT) assay. […]” for “added.”, “purple” for “MTT solution was removed and the remaining”, “crystals (i.e., a reduced form of MTT) generated from viable cells” for “crystals”, “by adding 100” for “with 150”, “10% sodium dodecyl sulphate (SDS)” for “DMSO”

| Structure (SMILES) | IC50 [1] [µM] | IC50 [3] [µM] | melting point [°C] | IC50 [2] [µM] |
| --- | --- | --- | --- | --- |
| CN(C)CCN1C(=O)c2cccc3cc(N)cc(c23)C1=O [Amonafide, amonafide, reference compound] | 6.86 ± 1.89 | 10.1 ± 2.59 | – | 20.3 ± 2.43 |
| Cl.Cl.NCCNCCCN1C(=O)c2cccc3cccc(c23)C1=O [Compound 7a, 2-[3-(2-Aminoethylamino)propyl]1H-benz-[de]isoquinoline-1,3(2H)-dione dihydrochloride] | 19.3 ± 4.39 | 48.8 ± 3.93 | 233.4 to 235.1 | > 50 |
| Cl.Cl.NCCNCCCCN1C(=O)c2cccc3cccc(c23)C1=O [Compound 7b, 2-[4-(2-Aminoethylamino)butyl]1H-benz-[de]isoquinoline-1,3(2H)-dione dihydrochloride] | 13.9 ± 2.68 | 25.6 ± 3.74 | 243.1 to 244.1 | 33.9 ± 4.32 |
| Cl.Cl.NCCCCNCCCCN1C(=O)c2cccc3cccc(c23)C1=O [Compound 7g, 2-[4-(4-Aminobutylamino)butyl]1H-benz-[de]isoquinoline-1,3(2H)-dione dihydrochloride] | 13.9 ± 2.54 | 14 ± 3.32 | 226.7 to 228.3 | 12 ± 4.07 |
| Cl.Cl.NCCCCNCCCCCN1C(=O)c2cccc3cccc(c23)C1=O [Compound 7h, 2-[5-(4-Aminobutylamino)pentyl]1H-benz-[de]isoquinoline-1,3(2H)-dione dihydrochloride] | 16.2 ± 4.28 | 15.9 ± 1.53 | 236.6 to 237.9 | 18.8 ± 4.94 |
| Cl.Cl.NCCCCCCNCCCCN1C(=O)c2cccc3cccc(c23)C1=O [Compound 7j, 2-[4-(6-Aminohexylamino)butyl]1H-benz-[de]isoquinoline-1,3(2H)-dione dihydrochloride] | 16.4 ± 1.75 | 12.6 ± 0.81 | 235.9 to 237.2 | 13.1 ± 3.94 |

More lines, main results first:

| IC50 [1] [µM] | IC50 [3] [µM] | melting point [°C] | Structure (SMILES) | IC50 [2] [µM] |
| --- | --- | --- | --- | --- |
| 9.89 ± 1.11 | 38.8 ± 1.76 | 233.8 to 235.1 | Cl.Cl.NCCNCCCCCN1C(=O)c2cccc3cccc(c23)C1=O [Compound 7c, 2-[5-(2-Aminoethylamino)pentyl]1H-benz-[de]isoquinoline-1,3(2H)-dione dihydrochloride] | > 50 |
| 8.95 ± 3.87 | 19.7 ± 7.23 | 233.1 to 234.2 | Cl.Cl.NCCCNCCCN1C(=O)c2cccc3cccc(c23)C1=O [Compound 7d, 2-[3-(3-Aminopropylamino)propyl]1H-benz-[de]isoquinoline-1,3(2H)-dione dihydrochloride] | 8.04 ± 3.35 |
| 9.52 ± 3.31 | 22.4 ± 1.21 | 238.6 to 239.8 | Cl.Cl.NCCCNCCCCCN1C(=O)c2cccc3cccc(c23)C1=O [Compound 7e, 2-[5-(3-Aminopropylamino)pentyl]1H-benz-[de]isoquinoline-1,3(2H)-dione dihydrochloride] | 22.2 ± 0.67 |
| 11 ± 1.71 | 41.4 ± 1.76 | 230.6 to 231.8 | Cl.Cl.NCCCCCCNCCCN1C(=O)c2cccc3cccc(c23)C1=O [Compound 7i, 2-[3-(6-Aminohexylamino)propyl]1H-benz-[de]isoquinoline-1,3(2H)-dione dihydrochloride] | > 50 |
| 9.95 ± 1.81 | 15.9 ± 1.83 | 229.1 to 230.3 | Cl.Cl.NCCCCCCNCCCCCN1C(=O)c2cccc3cccc(c23)C1=O [Compound 7k, 2-[5-(6-Aminohexylamino)pentyl]1H-benz-[de]isoquinoline-1,3(2H)-dione dihydrochloride] | 14.7 ± 3.91 |
